This is an account of results in patent US20240246964A1 (Arbutus Biopharma Corporation, priority 2021, published 2024).

Usually pIC50 stands for −log10 of the IC50, conventionally taken in molar units. Lower therefore signals a high IC50. By pEC50 is commonly meant the EC50 on a negative log10 scale, so that one unit is a factor of ten. The low end stands for a large EC50, the high end for a small EC50.

pEC50, pIC50: −log10 of the molar value.

The target of test [1] is PD-L1 His protein / PD-1 Fc protein (Homo sapiens (Human), UniProt Q9NZQ7). Briefly: HTRF Assay (PD-1/PD-L1 interaction). As to conditions: PD-L1 His 6 nM, PD-1 Fc 6 nM. The class given is binding.
Sequence of PD-L1 His protein / PD-1 Fc protein (Q9NZQ7 19-238): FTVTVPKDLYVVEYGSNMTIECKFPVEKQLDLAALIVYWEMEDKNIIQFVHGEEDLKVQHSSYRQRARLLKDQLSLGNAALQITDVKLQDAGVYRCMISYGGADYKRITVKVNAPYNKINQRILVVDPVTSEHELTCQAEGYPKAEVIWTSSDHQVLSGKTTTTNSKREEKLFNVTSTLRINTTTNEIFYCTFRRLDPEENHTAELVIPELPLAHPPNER
The target in the next test is human PD-L1 (Homo sapiens (Human), UniProt Q9NZQ7). Nature of the test: T cell activation luciferase reporter cell culture system (T Cell Activation Assay). It counts as cell-based. As to conditions: luciferase reporter assay; PD-L1 aAPC/CHO-K1 cells with PD-1 effector Jurkat T cells. (In general: A reporter such as luciferase makes a cellular process visible.)
Sequence of human PD-L1 (Q9NZQ7 19-290): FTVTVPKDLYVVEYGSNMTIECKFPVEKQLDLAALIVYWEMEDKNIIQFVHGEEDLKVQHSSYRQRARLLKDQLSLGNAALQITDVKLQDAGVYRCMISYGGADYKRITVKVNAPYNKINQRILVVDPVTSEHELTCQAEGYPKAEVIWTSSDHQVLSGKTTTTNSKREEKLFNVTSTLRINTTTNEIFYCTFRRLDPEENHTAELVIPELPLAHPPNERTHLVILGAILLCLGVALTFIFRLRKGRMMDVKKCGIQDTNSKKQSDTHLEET

In test [1], `COc1cc(-c2nccc(-c3cccc(-c4ccc5c(CNC6CCC(F)(F)CC6)cn(C)c5n4)c3Cl)c2Cl)ccc1CNC[C@@H]1CCC(=O)N1` [Compound 96, (S)-5-(((4-(3-chloro-4-(2-chloro-3-(3-(((4,4-difluorocyclohexyl)amino)methyl)-1-methyl-1H-pyrrolo[2,3-b]pyridin-6-yl)phenyl)pyridin-2-yl)-2-methoxybenzyl)amino)methyl)pyrrolidin-2-one] gave a negative logarithm of the IC50 (pIC50) of 9.22. This compound also gave a pEC50 at human PD-L1 of 6.64.

For the compound `COc1cc(-c2nccc(-c3cccc(-c4ccc5c(CNCCO)cn(C)c5n4)c3Cl)c2Cl)ccc1CNC[C@@H]1CCC(=O)N1` [Compound 97, (S)-5-(((4-(3-chloro-4-(2-chloro-3-(3-(((2-hydroxyethyl)amino)methyl)-1-methyl-1H-pyrrolo[2,3-b]pyridin-6-yl)phenyl)pyridin-2-yl)-2-methoxybenzyl)amino)methyl)pyrrolidin-2-one], the pIC50 in test [1] is 9.30. Further, the pEC50 on human PD-L1 is 7.55.

In test [1], `COc1cc(-c2nccc(-c3cccc(-c4ccc5c(CNC[C@H](C)O)cn(C)c5n4)c3Cl)c2Cl)ccc1CNC[C@@H]1CCC(=O)N1` [Compound 98, (S)-5-(((4-(3-chloro-4-(2-chloro-3-(3-((((S)-2-hydroxypropyl)amino)methyl)-1-methyl-1H-pyrrolo[2,3-b]pyridin-6-yl)phenyl)pyridin-2-yl)-2-methoxybenzyl)amino)methyl)pyrrolidin-2-one] had a negative logarithm of the IC50 (pIC50) of 9.15. The same compound gave a pEC50 at human PD-L1 of 7.52.

In turn, `COc1cc(-c2nccc(-c3cccc(-c4ccc5c(CNCC(C)(C)O)cn(C)c5n4)c3Cl)c2Cl)ccc1CNC[C@@H]1CCC(=O)N1` [Compound 99, (S)-5-(((4-(3-chloro-4-(2-chloro-3-(3-(((2-hydroxy-2-methylpropyl)amino)methyl)-1-methyl-1H-pyrrolo[2,3-b]pyridin-6-yl)phenyl)pyridin-2-yl)-2-methoxybenzyl)amino)methyl)pyrrolidin-2-one] had a pIC50 in test [1] of 9.15. For the same compound, the pEC50 on human PD-L1 was 7.32.

`COCCNCc1cn(C)c2nc(-c3cccc(-c4ccnc(-c5ccc(CNC[C@@H]6CCC(=O)N6)c(OC)c5)c4Cl)c3Cl)ccc12` [Compound 100, (S)-5-(((4-(3-chloro-4-(2-chloro-3-(3-(((2-methoxyethyl)amino)methyl)-1-methyl-1H-pyrrolo[2,3-b]pyridin-6-yl)phenyl)pyridin-2-yl)-2-methoxybenzyl)amino)methyl)pyrrolidin-2-one]: the pIC50 in test [1] was 9.05. Also, on human PD-L1, the pEC50 was 7.23.

Regarding `COc1cc(-c2nccc(-c3cccc(-c4ccc5c(CN(C)CCO)cn(C)c5n4)c3Cl)c2Cl)ccc1CNC[C@@H]1CCC(=O)N1` [Compound 101, (S)-5-(((4-(3-chloro-4-(2-chloro-3-(3-(((2-hydroxyethyl)(methyl)amino)methyl)-1-methyl-1H-pyrrolo[2,3-b]pyridin-6-yl)phenyl)pyridin-2-yl)-2-methoxybenzyl)amino)methyl)pyrrolidin-2-one], the pIC50 in test [1] is 9.30. On human PD-L1, this compound had a negative logarithm of the EC50 (pEC50) of 7.51.

Take `COc1nc(-c2cccc(-c3ccnc(-c4cc5c(=O)n(C)c(CNC[C@@H]6CCC(=O)N6)nn5c4)c3Cl)c2Cl)ccc1CNC[C@@H]1CCC(=O)N1` [Compound 103, 6-(3-chloro-4-(2-chloro-3-(6-methoxy-5-(((((S)-5-oxopyrrolidin-2-yl)methyl)amino)methyl)pyridin-2-yl)phenyl)pyridin-2-yl)-3-methyl-2-(((((S)-5-oxopyrrolidin-2-yl)methyl)amino)methyl)pyrrolo[2,1-f][1,2,4]triazin-4(3H)-one]: the pIC50 in test [1] is 9.15. This compound showed a pEC50 on human PD-L1 of 6.52.

`COc1cc(-c2nccc(-c3cccc(-c4ccc(C5=NCCN5)c(OC)n4)c3Cl)c2Cl)ccc1C1=NCCN1` [Compound 106, 3-chloro-4-(2-chloro-3-(5-(4,5-dihydro-1H-imidazol-2-yl)-6-methoxypyridin-2-yl)phenyl)-2-(4-(4,5-dihydro-1H-imidazol-2-yl)-3-methoxyphenyl)pyridine] had a pIC50 in test [1] of 8.85. In addition, the pEC50 on human PD-L1 was 6.91.

Take `COc1nc(-c2cccc(-c3ccnc(-c4cc5c(=O)n(C)c(CN6CC(C)(O)C6)nn5c4)c3Cl)c2Cl)ccc1CNC[C@@H]1CCC(=O)N1` [Compound 110, (S)-6-(3-chloro-4-(2-chloro-3-(6-methoxy-5-((((5-oxopyrrolidin-2-yl)methyl)amino)methyl)pyridin-2-yl)phenyl)pyridin-2-yl)-2-((3-hydroxy-3-methylazetidin-1-yl)methyl)-3-methylpyrrolo[2,1-f][1,2,4]triazin-4(3H)-one]: in test [1], the pIC50 was 9.05. Further, the pEC50 at human PD-L1 was 7.22.

`COc1nc(-c2cccc(-c3ccnc(-c4cc5c(=O)n(C)c(CNC(C)C)nn5c4)c3Cl)c2Cl)ccc1CNC[C@@H]1CCC(=O)N1` [Compound 111, (S)-6-(3-chloro-4-(2-chloro-3-(6-methoxy-5-((((5-oxopyrrolidin-2-yl)methyl)amino)methyl)pyridin-2-yl)phenyl)pyridin-2-yl)-2-((isopropylamino)methyl)-3-methylpyrrolo[2,1-f][1,2,4]triazin-4(3H)-one] showed a pIC50 in test [1] of 8.66. The same compound had a pEC50 at human PD-L1 of 6.58.

`COc1cc(-c2nccc(-c3cccc(-c4ccc(CNC[C@@H]5CCC(=O)N5)c(OC)n4)c3Cl)c2Cl)cc(C)c1CNC[C@H](C)O` [Compound 114, (S)-5-((((6-(2-chloro-3-(3-chloro-2-(4-((((S)-2-hydroxypropyl)amino)methyl)-3-methoxy-5-methylphenyl)pyridin-4-yl)phenyl)-2-methoxypyridin-3-yl)methyl)amino)methyl)pyrrolidin-2-one] gave a negative logarithm of the IC50 (pIC50) in test [1] of 9.05. This compound showed a pEC50 on human PD-L1 of 7.09.

In test [1], `COc1cc(-c2nccc(-c3cccc(-c4ccc(CNC[C@@H]5CCC(=O)N5)c(OC)n4)c3Cl)c2Cl)cc(C)c1CNC[C@@H]1CCC(=O)N1` [Compound 115, (S)-5-((((6-(2-chloro-3-(3-chloro-2-(3-methoxy-5-methyl-4-(((((S)-5-oxopyrrolidin-2-yl)methyl)amino)methyl)phenyl)pyridin-4-yl)phenyl)-2-methoxypyridin-3-yl)methyl)amino)methyl)pyrrolidin-2-one] showed a pIC50 of 8.96. For the same compound, the pEC50 at human PD-L1 was 7.44.

On to `COc1nc(-c2cccc(-c3ccnc(-c4ccc5c(c4)CNC5)c3Cl)c2Cl)ccc1CNC[C@@H]1CCC(=O)N1` [Compound 116, (S)-5-((((6-(2-chloro-3-(3-chloro-2-(isoindolin-5-yl)pyridin-4-yl)phenyl)-2-methoxypyridin-3-yl)methyl)amino)methyl)pyrrolidin-2-one], for which the pIC50 in test [1] is 9.05. At human PD-L1, this compound gave a pEC50 of 7.19.

`COc1cc(-c2nccc(-c3cccc(-c4ccc(CNC[C@@H]5CCC(=O)N5)c(OC)n4)c3Cl)c2Cl)cc(C)c1CN(C)C[C@@H]1CCC(=O)N1` [Compound 117, (S)-5-((((6-(2-chloro-3-(3-chloro-2-(3-methoxy-5-methyl-4-((methyl(((S)-5-oxopyrrolidin-2-yl)methyl)amino)methyl)phenyl)pyridin-4-yl)phenyl)-2-methoxypyridin-3-yl)methyl)amino)methyl)pyrrolidin-2-one]: the pIC50 in test [1] was 8.89. At human PD-L1, this compound showed a negative logarithm of the EC50 (pEC50) of 7.51.

`COc1cc(-c2nccc(-c3cccc(-c4ccc(CNC[C@@H]5CCC(=O)N5)c(OC)n4)c3Cl)c2Cl)cc(C)c1CN(C)C[C@H](C)O` [Compound 118, (S)-5-((((6-(2-chloro-3-(3-chloro-2-(4-((((S)-2-hydroxypropyl)(methyl)amino)methyl)-3-methoxy-5-methylphenyl)pyridin-4-yl)phenyl)-2-methoxypyridin-3-yl)methyl)amino)methyl)pyrrolidin-2-one] gave a pIC50 in test [1] of 8.80. Also, the negative logarithm of the EC50 (pEC50) at human PD-L1 was 7.36.

With `COc1nc(-c2ccnc(-c3cccc4c3CC[C@@H]4Oc3nc(OC)c(CNC[C@H](C)O)cc3C(F)(F)F)c2Cl)ccc1CNC[C@@H]1CCC(=O)N1` [Compound 128, (S)-5-((((3′-chloro-2′-((S)-1-((5-((((S)-2-hydroxypropyl)amino)methyl)-6-methoxy-3-(trifluoromethyl)pyridin-2-yl)oxy)-2,3-dihydro-1H-inden-4-yl)-6-methoxy-[2,4′-bipyridin]-5-yl)methyl)amino)methyl)pyrrolidin-2-one], in test [1], the pIC50 is 9.27. At human PD-L1, this compound showed a pEC50 of 8.04.

In test [1], `COc1nc(-c2ccnc(-c3cccc4c3CC[C@@H]4Oc3nc(OC)c(CNC4(C(=O)O)CC4)cc3C(F)(F)F)c2Cl)ccc1CNC[C@@H]1CCC(=O)N1` [Compound 129, 1-(((6-(((S)-4-(3′-chloro-6-methoxy-5-(((((S)-5-oxopyrrolidin-2-yl)methyl)amino)methyl)-[2,4′-bipyridin]-2′-yl)-2,3-dihydro-1H-inden-1-yl)oxy)-2-methoxy-5-(trifluoromethyl)pyridin-3-yl)methyl)amino)cyclopropane-1-carboxylic acid] showed a negative logarithm of the IC50 (pIC50) of 9.52. The pEC50 on human PD-L1 was 7.78.

In test [1], `COc1cc(-c2nccc(-c3cccc(-c4ccc(CNC[C@@H]5CCC(=O)N5)c(OC)n4)c3Cl)c2Cl)ccc1CN[C@@H](C)C(=O)O` [Compound 130, (4-(3-chloro-4-(2-chloro-3-(6-methoxy-5-(((((S)-5-oxopyrrolidin-2-yl)methyl)amino)methyl)pyridin-2-yl)phenyl)pyridin-2-yl)-2-methoxybenzyl)-L-alanine] showed a negative-log IC50 (pIC50) of 9.68. For the same compound, the pEC50 at human PD-L1 was 6.80.

`COc1cc(-c2nccc(-c3cccc(-c4cc(F)c(CNC[C@@H]5CCC(=O)N5)c(OC)n4)c3Cl)c2Cl)cc2c1CN(C[C@@H](C)O)CC2` [Compound 131, (S)-5-((((6-(2-chloro-3-(3-chloro-2-(2-((R)-2-hydroxypropyl)-8-methoxy-1,2,3,4-tetrahydroisoquinolin-6-yl)pyridin-4-yl)phenyl)-4-fluoro-2-methoxypyridin-3-yl)methyl)amino)methyl)pyrrolidin-2-one] showed a negative logarithm of the IC50 (pIC50) in test [1] of 9.18. This compound had a pEC50 on human PD-L1 of 7.45.
